Assay results published in patent publication US20080146614A1, “Therapeutic Agents” (priority 2004, published 2008).

Biological target: T1, CB1 receptor (Homo sapiens, UniProt P21554)
T1 construct: expressed in transfected cells
Test: [35S]-GTPγS binding assay on membranes from cells stably transfected with the CB1 gene, inhibition of agonist CP55940 (EC80)
Type: biochemical
Details: half maximal inhibition of GTPγS binding, EC80 concentration of CP55940
Experimental: 10 μg of membranes prepared from cells stably transfected with the CB1 gene were suspended in 200 μl of 100 mM NaCl, 5 mM MgCl2, 1 mM EDTA, 50 mM HEPES (pH 7.4), 1 mM DTT, 0.1% BSA and 100 μM GDP. To this was added an EC80 concentration of agonist (CP55940), the required concentration of test compound and 0.1 μCi [^35S]-GTPγS. The reaction was allowed to proceed at 30° C. for 45 min. Samples were then transferred on to GF/B filters using a cell harvester and washed with wash buffer (50 mM Tris (pH 7.4), 5 mM MgCl2, 50 mM NaCl). Filters were then covered with scintilant and counted for the amount of [^35S]-GTPγS retained by the filter.
Activity is measured in the absence of all ligands (minimum activity) or in the presence of an EC80 concentration of CP55940 (maximum activity). These activities are set as 0% and 100% activity respectively. At various concentrations of novel ligand, activity is calculated as a percentage of the maximum activity and plotted. The data are fitted using the equation y=A+((B−A)/1+((C/x)UD)) and the IC50 value determined as the concentration required to give half maximal inhibition of GTPγS binding under the conditions used.

T1 sequence (P21554 whole entry): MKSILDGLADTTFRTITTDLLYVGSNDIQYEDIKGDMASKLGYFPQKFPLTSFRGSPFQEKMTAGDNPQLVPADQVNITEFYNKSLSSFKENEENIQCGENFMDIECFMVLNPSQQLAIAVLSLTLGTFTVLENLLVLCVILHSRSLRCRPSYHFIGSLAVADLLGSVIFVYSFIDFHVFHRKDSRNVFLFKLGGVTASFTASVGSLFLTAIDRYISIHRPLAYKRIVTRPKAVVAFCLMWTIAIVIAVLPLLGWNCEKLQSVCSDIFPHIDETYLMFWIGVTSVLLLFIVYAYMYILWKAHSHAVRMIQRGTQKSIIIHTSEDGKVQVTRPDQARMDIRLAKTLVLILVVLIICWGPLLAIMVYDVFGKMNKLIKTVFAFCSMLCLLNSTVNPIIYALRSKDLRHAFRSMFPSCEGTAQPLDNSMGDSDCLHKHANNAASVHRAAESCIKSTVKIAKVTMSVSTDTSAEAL

**Q.** CCCS(=O)(=O)Oc1ccc(-c2c(CO)c(C(=O)NN3CCCCC3)nn2-c2ccc(Cl)cc2Cl)cc1 [Example 1, Propane-1-sulfonic acid 4-[2-(2,4-dichlorophenyl)-4-hydroxymethyl-5-(piperidin-1-ylcarbamoyl)-2H-pyrazol-3-yl]-phenyl ester] was tested. Which IC50 did it give?
**A.** Its IC50 is 3.3 nM.
